From ChEMBL document CHEMBL4483862, “Open-source discovery of chemical leads for next-generation chemoprotective antimalarials” (2018)

System: Plasmodium berghei
Assay: Luciferase/luciferin-expressing antifolate-resistant parasites were used to infect a culture of HepG2 cells that were pre-incubated with compounds. Infected hepatocytes emit light due to the luciferase reaction. Assay results are presented as the percent inhibition of light emission compared to control. […]
Assay type: functional
Conditions: sporozoite; for IC90: read-out: LUCIFERASE INFECTION ASSAY - IC90
[1] = read-out: LUCIFERASE INFECTION ASSAY - IC50

Compound: CCOC(=O)c1ccc(N2C(=O)c3ccccc3C(C=NNC(=O)c3ccoc3C)C2=O)c(Cl)c1 (stereo not drawn)
- IC50 (HEPG2TOX_HILL_SLOPE 6.47, HEPG2TOX_R_SQUARED 0.622, PBLUC_HILL_SLOPE 28.4, PBLUC_R_SQUARED 0.423, read-out: LUCIFERASE INFECTION ASSAY - IC50): 9.76 µM
- IC90: > 10 µM

Compound: CCOC(=O)c1cc(-c2ccc(OC)cc2)nn1-c1cccc(C)c1
- IC50 (PBLUC_HILL_SLOPE 0.992, PBLUC_R_SQUARED 0.815, read-out: LUCIFERASE INFECTION ASSAY - IC50): > 10 µM
- IC90: > 10 µM

Compound: N#CC(/N=C\c1ccc(Cl)cc1)=C(\C#N)NC(=O)Nc1ccc(OC(F)(F)F)cc1
- IC50 (HEPG2TOX_HILL_SLOPE 2.54, HEPG2TOX_R_SQUARED 0.983, PBLUC_HILL_SLOPE 13.2, PBLUC_R_SQUARED 0.605, read-out: LUCIFERASE INFECTION ASSAY - IC50): 2.33 µM
- IC90: 2.75 µM

Compound: Cc1ccc(C(C)C)c(OCC(=O)N2CCC(c3nc4ccccc4[nH]3)CC2)c1
- IC50 (PBLUC_HILL_SLOPE 4.62, PBLUC_R_SQUARED 0.766, read-out: LUCIFERASE INFECTION ASSAY - IC50): 4.48 µM
- IC90: 7.21 µM

Compound: COc1cccc(Nc2ncc(C(=O)c3cccc(-c4cccnc4)c3)[nH]2)c1
- IC50 (HEPG2TOX_HILL_SLOPE 1.65, HEPG2TOX_R_SQUARED 0.891, PBLUC_HILL_SLOPE 14.3, PBLUC_R_SQUARED 0.795, read-out: LUCIFERASE INFECTION ASSAY - IC50): 0.322 µM
- IC90: 0.376 µM

Compound: O=C(NC1CCCCC1C(F)(F)F)c1csc(-c2ccccc2)n1 (stereo not drawn)
- IC50 (HEPG2TOX_HILL_SLOPE 0.159, HEPG2TOX_R_SQUARED 0.617, PBLUC_HILL_SLOPE 14, PBLUC_R_SQUARED 0.734, read-out: LUCIFERASE INFECTION ASSAY - IC50): 3.35 µM
- IC90: 3.92 µM

Compound: Cc1cccc(-c2nc3c(NCc4ccccc4)nccc3[nH]2)c1
- IC50 (PBLUC_HILL_SLOPE 2.29, PBLUC_R_SQUARED 0.394, read-out: LUCIFERASE INFECTION ASSAY - IC50): 3.51 µM
- IC90: 9.18 µM

Compound: O=C(Cc1csc(-c2ccccc2)n1)Nc1nc2c(s1)CCCC2
- IC50 [1]: > 10 µM
- IC90: > 10 µM

Compound: N#CC(C(=O)c1ccccc1NC(=O)C(F)(F)F)c1nc(-c2ccc(Cl)cc2)cs1 (stereo not drawn)
- IC50 (FFLUC_HILL_SLOPE 12.8, FFLUC_R_SQUARED 0.656, read-out: LUCIFERASE INFECTION ASSAY - IC50): > 10 µM
- IC90: > 10 µM

Compound: N#Cc1cccnc1N1CCN(C(=O)c2cc(-c3ccccc3)nn2-c2ccccc2)CC1
- IC50 [1]: > 10 µM
- IC90: > 10 µM

Compound: CC(C)(C)C(=O)COC(=O)c1ccc(-c2ccc(O)cc2)cc1
- IC50 [1]: > 10 µM
- IC90: > 10 µM

Compound: COc1ccc(/C=C/C2=NNC(=O)CC2)cc1
- IC50 (HEPG2TOX_HILL_SLOPE 0.708, HEPG2TOX_R_SQUARED 0.9, read-out: LUCIFERASE INFECTION ASSAY - IC50): > 14.3 µM
- IC90: > 14.3 µM

Compound: NS(=O)(=O)c1ccc(CCNc2nn3c(-c4cccc(C(F)(F)F)c4)cnc3s2)cc1
- IC50 (FFLUC_HILL_SLOPE 7.49, FFLUC_R_SQUARED 0.26, read-out: LUCIFERASE INFECTION ASSAY - IC50): > 7.06 µM
- IC90: > 7.06 µM

Compound: O=C(Cn1ncc(Cl)c(Cl)c1=O)N1CCN(S(=O)(=O)c2ccc3ccccc3c2)CC1
- IC50 (HEPG2TOX_HILL_SLOPE 11.9, 3.77, HEPG2TOX_R_SQUARED 0.663, 0.998, PBLUC_HILL_SLOPE 2.89, PBLUC_R_SQUARED 0.527, read-out: LUCIFERASE INFECTION ASSAY - IC50): 5.1 µM
- IC90: > 10 µM

Compound: COc1ccc(/C=C/C(=O)N2CCCC2c2cccs2)cc1S(=O)(=O)N1CCCCC1 (stereo not drawn)
- IC50 [1]: > 10 µM
- IC90: > 10 µM

Compound: NC(=S)COc1cc(Cl)cc(Cl)c1
- IC50 (HEPG2TOX_HILL_SLOPE 8.05, HEPG2TOX_R_SQUARED 0.893, PBLUC_HILL_SLOPE 16, PBLUC_R_SQUARED 0.105, read-out: LUCIFERASE INFECTION ASSAY - IC50): 13.4 µM
- IC90: > 14 µM

Compound: Cc1cccc(NC(=O)N2CCC3(CC2)OCc2cc(-c4ccc(OC(F)(F)F)cc4)ccc2O3)c1
- IC50 [1]: > 6.62 µM
- IC90: > 6.62 µM

Compound: O=C(c1ccc(-n2cnc3ccccc3c2=O)cc1)N1CCN(S(=O)(=O)c2ccc3ccccc3c2)CC1
- IC50 (PBLUC_HILL_SLOPE 18.8, PBLUC_R_SQUARED 0.0296, read-out: LUCIFERASE INFECTION ASSAY - IC50): 9.48 µM
- IC90: > 10 µM

Compound: Cn1ccnc1Sc1ncnc2ccsc12
- IC50 (PBLUC_HILL_SLOPE 4.08, PBLUC_R_SQUARED 0.748, read-out: LUCIFERASE INFECTION ASSAY - IC50): 5.51 µM
- IC90: 9.45 µM

Compound: O=C(NNC(=O)c1ccc(CSc2ccc(C(F)(F)F)cn2)o1)c1ccc(Cl)cc1
- IC50 [1]: > 7.24 µM
- IC90: > 7.24 µM

Compound: O=[N+]([O-])c1cnc(Sc2nnc(SCc3cccc(C(F)(F)F)c3)s2)s1
- IC50 (FFLUC_HILL_SLOPE 0.915, FFLUC_R_SQUARED 0.422, read-out: LUCIFERASE INFECTION ASSAY - IC50): > 7.56 µM
- IC90: > 7.56 µM

Compound: Cc1nc(NC(=O)Cc2nn(C)c(=O)c3ccccc23)sc1-c1ccccn1
- IC50 (HEPG2TOX_HILL_SLOPE 1.36, HEPG2TOX_R_SQUARED 0.975, PBLUC_HILL_SLOPE 4.04, PBLUC_R_SQUARED 0.363, read-out: LUCIFERASE INFECTION ASSAY - IC50): 8.34 µM
- IC90: > 10 µM

Compound: CN(Cc1ccccc1)C(=O)Nc1cccc2ncccc12
- IC50 [1]: > 10 µM
- IC90: > 10 µM

Compound: COc1cc(-c2cc3nc(Nc4ccc5c[nH]nc5c4)ccn3n2)cc(OC)c1OC
- IC50 (PBLUC_HILL_SLOPE 11.7, PBLUC_R_SQUARED 0.319, read-out: LUCIFERASE INFECTION ASSAY - IC50): 7.27 µM
- IC90: > 7.92 µM

Compound: NS(=O)(=O)c1ccc(CCNCC(=O)N2CCC(Cc3ccccc3)CC2)cc1
- IC50 (HEPG2TOX_HILL_SLOPE 10, HEPG2TOX_R_SQUARED 0.966, PBLUC_HILL_SLOPE 4.42, PBLUC_R_SQUARED 0.274, read-out: LUCIFERASE INFECTION ASSAY - IC50): 7.8 µM
- IC90: > 10 µM

Compound: CN(Cc1ccc(Br)s1)c1ncccc1C(N)=O
- IC50 [1]: > 2 µM
- IC90: > 2 µM

Compound: COc1ccccc1N(CCC#N)C(=O)COC(=O)/C=C/c1ccc(OC(F)F)cc1
- IC50 [1]: > 10 µM
- IC90: > 10 µM

Compound: CC(=O)Nc1cccc(Nc2nccc3[nH]c(-c4cccc(C(F)(F)F)c4)cc23)c1
- IC50 [1]: 0.705 µM
- IC90: 2.28 µM

Compound: CCOc1ccccc1N(C(=O)C1CC=CCC1)c1nc2ccccc2s1 (stereo not drawn)
- IC50 (HEPG2TOX_HILL_SLOPE 6.4, HEPG2TOX_R_SQUARED 0.335, PBLUC_HILL_SLOPE 2.71, PBLUC_R_SQUARED 0.0983, read-out: LUCIFERASE INFECTION ASSAY - IC50): 7.73 µM
- IC90: > 10 µM

Compound: O=C(Nc1ccccc1)c1cc2sccc2s1
- IC50 (HEPG2TOX_HILL_SLOPE 6.8, HEPG2TOX_R_SQUARED 0.21, read-out: LUCIFERASE INFECTION ASSAY - IC50): > 12.7 µM
- IC90: > 12.7 µM

Compound: CCCCNC(=O)c1c(NC(=O)c2ccc(F)cc2)nc2ccc(C)cn12
- IC50 [1]: 2.67 µM
- IC90: 3.28 µM

Compound: COc1cncc(-c2cnc3c(Nc4cc(OC)c(OC)c(OC)c4)nccn23)c1
- IC50 (HEPG2TOX_HILL_SLOPE 0.708, HEPG2TOX_R_SQUARED 0.654, PBLUC_HILL_SLOPE 2.45, PBLUC_R_SQUARED 0.956, read-out: LUCIFERASE INFECTION ASSAY - IC50): 0.121 µM
- IC90: 0.297 µM

Compound: O=C1C=CC(=O)N1c1ccccc1Cl
- IC50 [1]: 6.18 µM
- IC90: > 15.9 µM

Compound: CC(C)CCNCC(O)CON=C1c2ccccc2-c2ccccc21 (stereo not drawn)
- IC50 [1]: > 10 µM
- IC90: > 10 µM

Compound: Cc1cc(C(=O)COC(=O)c2ccc3[nH]c4c(c3c2)CCCC4)c(C)n1Cc1ccccc1Cl
- IC50 (PBLUC_HILL_SLOPE 2.26, PBLUC_R_SQUARED 0.534, read-out: LUCIFERASE INFECTION ASSAY - IC50): 1.74 µM
- IC90: 4.61 µM

Compound: Clc1ccccc1-c1nc2ccnc(NCCc3ccccc3)c2[nH]1
- IC50 (HEPG2TOX_HILL_SLOPE 0.707, HEPG2TOX_R_SQUARED 0.751, PBLUC_HILL_SLOPE 2.17, PBLUC_R_SQUARED 0.665, read-out: LUCIFERASE INFECTION ASSAY - IC50): 2.9 µM
- IC90: 7.97 µM

Compound: N#Cc1ccc(C#CCOC(=O)c2ccc(Cl)cc2)cc1
- IC50 (HEPG2TOX_HILL_SLOPE 9.79, HEPG2TOX_R_SQUARED 0.928, PBLUC_HILL_SLOPE 1.7, PBLUC_R_SQUARED 0.764, read-out: LUCIFERASE INFECTION ASSAY - IC50): 3.56 µM
- IC90: > 11.2 µM

Compound: O=S(=O)(c1ccc(N=C2NN=C(c3ccc4ccccc4c3)CS2)cc1)N1CCOCC1
- IC50 [1]: 4.82 µM
- IC90: 9.33 µM

Compound: O=C(C1CC1)N1CCc2nc(NCc3cccc(Oc4ccccc4)c3)ncc2C1
- IC50 (HEPG2TOX_HILL_SLOPE 1.68, HEPG2TOX_R_SQUARED 0.88, PBLUC_HILL_SLOPE 2.35, PBLUC_R_SQUARED 0.234, read-out: LUCIFERASE INFECTION ASSAY - IC50): 2.75 µM
- IC90: 7.02 µM

Compound: COc1ccc(/C=C2\c3ccccc3Cn3c2nc(=O)c2c4c(sc23)CCCC4)cc1
- IC50 (PBLUC_HILL_SLOPE 2.2, PBLUC_R_SQUARED 0.219, read-out: LUCIFERASE INFECTION ASSAY - IC50): 3.06 µM
- IC90: 8.28 µM

Compound: CCn1c(=O)[nH]c(=O)c2cc(C(=O)Nc3ccc(Oc4ccccc4)cc3)cnc21
- IC50 (PBLUC_HILL_SLOPE 2.4, PBLUC_R_SQUARED 0.0614, read-out: LUCIFERASE INFECTION ASSAY - IC50): 6.87 µM
- IC90: > 10 µM

Compound: Cc1cc(C(=O)CSc2nc3ccccc3s2)c(C)n1CC1CCCO1 (stereo not drawn)
- IC50 [1]: > 10 µM
- IC90: > 10 µM

Compound: CCO/C=N\C1=C(C#N)C(c2ccc(OC)cc2)c2ccc3ccccc3c2O1 (stereo not drawn)
- IC50 (HEPG2TOX_HILL_SLOPE 1.86, HEPG2TOX_R_SQUARED 0.624, read-out: LUCIFERASE INFECTION ASSAY - IC50): > 8.58 µM
- IC90: > 8.58 µM

Compound: CC(C)Oc1cccc(-c2cn3c(-c4ccc(N(C)C)cc4)cnc3cn2)c1
- IC50 (PBLUC_HILL_SLOPE 15, PBLUC_R_SQUARED 0.312, read-out: LUCIFERASE INFECTION ASSAY - IC50): > 8.86 µM
- IC90: > 8.86 µM
